“And” between values parts separate entries of the source, which are not always exact repeats. Equal entries are not always repeated.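 In this assay, cells in 96-well plates receive the compound at five concentrations for 48 hours. Endpoints are linearly interpolated between the surrounding concentrations. Abbreviation: GI50, concentration required for 50% inhibition of growth. Definition used: TGI = concentration required for complete inhibition of growth.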
Assays:
Assay in all cases: NCI tumour cell line growth inhibition, 48 h
CAKI-1 renal = tested on: CAKI-1 renal
HOP-62 NSCLC = tested on: HOP-62 NSCLC
KM12 colon = tested on: KM12 colon
MDA-MB-435 = tested on: MDA-MB-435
MOLT-4 leukemia = tested on: MOLT-4 leukemia
OVCAR-5 ovarian = tested on: OVCAR-5 ovarian
SF-268 CNS = tested on: SF-268 CNS
SK-MEL-28 melanoma = tested on: SK-MEL-28 melanoma
SNB-75 CNS = tested on: SNB-75 CNS
UO-31 renal = tested on: UO-31 renal

SMILES | GI50 (CAKI-1 renal) | TGI (CAKI-1 renal) | GI50 (HOP-62 NSCLC) | TGI (HOP-62 NSCLC) | GI50 (KM12 colon) | TGI (KM12 colon) | GI50 (MDA-MB-435) | TGI (MDA-MB-435) | GI50 (MOLT-4 leukemia) | TGI (MOLT-4 leukemia) | GI50 (OVCAR-5 ovarian) | TGI (OVCAR-5 ovarian) | GI50 (SF-268 CNS) | TGI (SF-268 CNS) | GI50 (SK-MEL-28 melanoma) | TGI (SK-MEL-28 melanoma) | GI50 (SNB-75 CNS) | TGI (SNB-75 CNS) | GI50 (UO-31 renal) | TGI (UO-31 renal)
CN1CC[C@@H](c2c(O)cc(O)c3c(=O)cc(-c4ccccc4Cl)oc23)[C@@H]1CO | 0.204 µM | > 2.56 µM | 0.304 µM | 1.2 µM | 0.254 µM | > 9 µM | 0.271 µM | 1.1 µM | 0.295 µM | > 3.79 µM | 0.287 µM | > 10 µM | 0.305 µM | 1.38 µM | 0.27 µM | 1.24 µM | 0.224 µM | 0.622 µM | 0.268 µM | > 2.99 µM
N#Cc1c(-c2ccc(Cl)cc2)c2c(n(C3OC(CO)C(O)C(O)C3O)c1=S)CCC2 (stereo unspecified) | – | > 100 µM | – | 57 µM | – | > 100 µM | – | 46.1 µM | – | 29 µM | – | > 100 µM | – | 84.7 µM | – | 32.9 µM | – | 76.3 µM | – | > 100 µM
Cc1ccc(CNc2c3ccccc3nc3cc(NC(=O)CCN4CCCC4)ccc23)cc1 | 1.23 µM | 3.91 µM | 0.68 µM | 2.38 µM | 0.534 µM | 1.79 µM | 1.33 µM | 2.62 µM | 0.316 µM | 1.32 µM | 0.793 µM | 2.1 µM | 0.819 µM | 2.31 µM | 1.66 µM | 3.09 µM | 1.06 µM | 2.26 µM | 1.25 µM | 2.54 µM
COc1c(Cl)cc(NC(=S)C#N)cc1Cl | – | 58.4 µM | – | > 50.9 µM | – | 85.6 µM | – | 92.8 µM | – | > 100 µM | – | > 100 µM | – | > 89.9 µM | – | > 71.4 µM | – | 67.4 µM | – | 56.1 µM
COc1cc(/C=C2\Sc3scc(-c4cccc([N+](=O)[O-])c4)[n+]3C2=O)cc(OC)c1OC | – | 17.8 µM | – | 36.1 µM | – | 41.6 µM | – | 25.2 µM | – | 11.8 µM | – | 55.6 µM | – | 42.1 µM | – | 34.8 µM | – | 8.77 µM | – | 19 µM
CC(C)(O)CC(=O)NCCn1ccc2ncnc(Nc3ccc(Oc4cccc(C(F)(F)F)c4)c(Cl)c3)c21 | 1.8 µM | > 10 µM | 4.7 µM | > 10 µM | 3.67 µM | > 10 µM | 3.98 µM | > 10 µM | 3.54 µM | > 10 µM | 2.55 µM | > 10 µM | 3.5 µM | > 10 µM | 4.43 µM | > 10 µM | 4.72 µM | > 10 µM | 1.12 µM | > 10 µM
COc1ccc(/C=C2\CCCC3=C2NC(N)=NC3c2ccc(OC)c(OC)c2)cc1OC (stereo unspecified) | 4.11 µM | > 100 µM | 4.04 µM | > 66.9 µM | 6.87 µM | > 100 µM | 1.43 µM | > 100 µM | 4.04 µM | > 100 µM | > 54.5 µM | > 100 µM | 6.9 µM | > 100 µM | 21.6 µM | > 100 µM | 2.41 µM | 13.8 µM | 11.8 µM | > 57.1 µM
CCc1ccc(NC(=O)COC(=O)c2cc([N+](=O)[O-])ccc2Sc2nnnn2C)cc1 | 13.7 µM | 46.5 µM | 15.2 µM | 36 µM | 19.6 µM | > 100 µM | 3.42 µM | 21.4 µM | 20.3 µM | 81.6 µM | 17.2 µM | 76 µM | 14.5 µM | 70.7 µM | 9.94 µM | 28.8 µM | 13.1 µM | 35 µM | 24.9 µM | > 100 µM
O=[N+]([O-])c1cccc([As]=[As]c2cccc([N+](=O)[O-])c2)c1 (stereo unspecified) | 0.137 µM | 0.281 µM | 0.159 µM | 0.301 µM | 0.172 µM | 0.343 µM | 0.122 µM | 0.271 µM | 0.104 µM | 0.353 µM | 0.0891 µM | 0.216 µM | 0.0819 µM | 0.228 µM | 0.136 µM | 0.305 µM | 0.0611 µM | 0.206 µM | 0.119 µM | 0.255 µM
COC(=O)c1cc2ccc(OC(C)=O)c(OC(C)=O)c2cn1 | – | 35.9 µM | – | 42.7 µM | – | 33.6 µM | – | 3.16 µM and 3.26 µM | 2.22 µM | 6.54 µM and 4.28 µM | – | 34.2 µM | – | 53 µM | – | 34.3 µM | – | 42 µM | – | 30 µM
COc1ccc(C2SC(C)C(=O)N2NC(=O)C(O)c2ccccc2)cc1OC (stereo unspecified) | > 100 µM | > 100 µM | > 100 µM | > 100 µM | > 100 µM | > 100 µM | > 100 µM | > 100 µM | > 100 µM | > 100 µM | > 100 µM | > 100 µM | > 100 µM | > 100 µM | > 100 µM | > 100 µM | > 100 µM | > 100 µM | > 100 µM | > 100 µM
O=C(Nc1cccc(NC(=O)Nc2cc(C(F)(F)F)ccc2Cl)c1)Nc1cc(C(F)(F)F)ccc1Cl | 3.14 µM | > 100 µM | 1.35 µM | 4.01 µM | 1.53 µM | 57.1 µM | 5.56 µM | > 100 µM | 5.19 µM | > 100 µM | 9.01 µM | > 100 µM | 5.19 µM | 34.2 µM | 2.84 µM | 15.4 µM | 1.56 µM | 4.51 µM | 2.49 µM | 14.7 µM
C[CH2][Sn]([CH2]C)([O]C(=O)C(OC(C)=O)c1ccccc1)[O]C(=O)C(OC(C)=O)c1ccccc1 (stereo unspecified) | 72 µM | > 100 µM | > 100 µM | > 100 µM | > 100 µM | > 100 µM | > 100 µM | > 100 µM | 17.2 µM | 60.9 µM | 41.2 µM | > 100 µM | 16.6 µM | 31.8 µM | 18.3 µM | 40.9 µM | 31.9 µM | 99.5 µM | 19.5 µM | 43.4 µM
COc1ccc(/C=C2\S/C(=N/Nc3nc(-c4ccccc4)cs3)NC2=O)cc1OC | – | > 100 µM | – | > 100 µM | – | 82.2 µM | – | 75 µM | – | 20.6 µM | – | > 100 µM | – | > 100 µM | – | 69.9 µM | – | 64.4 µM | – | 51.7 µM
